{
  "source": "patent US12052991B2",
  "about": "“Substituted pyridinyloxybenzenes and salts thereof and use thereof as herbicidal agents” (Bayer Aktiengesellschaft, priority 2018, dated 2024)",
  "type_in_all_cases": "in vivo",
  "key": {"[1]": {"test_system": "Matricaria inodora (MATIN)", "experiment": "Herbicidal pre-emergence action, test C (Table C7)", "settings": "dosage 1280 g/ha; visual scoring after about 3 weeks; 100% = plants have died, 0% = like control plants", "how_it_was_run": "(§1)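 Seeds are covered with sandy loam, and the formulated compound is applied to the soil surface before emergence at 1280 or 320 g/ha. Spray carries 0.5% additive at 600 L/ha. Damage is rated visually as percent versus untreated pots after roughly 3 weeks.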"}, "[2]": {"test_system": "Echinochloa crus-galli (ECHCG)", "experiment": "Herbicidal pre-emergence action, test C (Table C1)", "settings": "dosage 1280 g/ha; visual scoring after about 3 weeks; 100% = plants have died, 0% = like control plants", "from_the_text": "Seeds of mono- and dicotyledonous weed plants were placed in plastic pots in sandy loam soil (doubly sown with one species each of mono- or dicotyledonous weed plants per pot) and covered with soil. The compounds of the invention, formulated in the form of wettable powders (WP) or as emulsion concentrates (EC), were then applied onto the surface of the covering soil as aqueous suspension or emulsion with addition of 0.5% additive at a water application rate of 600 liters per hectare (converted). After the treatment, the pots were placed in a greenhouse and kept under good growth conditions for the test plants. After about 3 weeks, the effect of the preparations was scored visually in comparison with untreated controls as percentages. For example, 100% activity=the plants have died, 0% activity=like control plants. Tables C1 to C12 below show the effects of selected compounds of the general formula (I) according to Table 1 on various harmful plants and an application rate corresponding to 1280 or 320 g/ha, which were obtained by the experimental procedure mentioned above."}, "[3]": {"test_system": "Setaria viridis (SETVI)", "experiment": "Herbicidal pre-emergence action, test C (Table C4)", "settings": "dosage 1280 g/ha; visual scoring after about 3 weeks; 100% = plants have died, 0% = like control plants", "how_it_was_run": "as §1"}, "[4]": {"test_system": "Amaranthus retroflexus (AMARE)", "experiment": "Herbicidal pre-emergence action, test C (Table C6)", "settings": "dosage 1280 g/ha; visual scoring after about 3 weeks; 100% = plants have died, 0% = like control plants", "how_it_was_run": "as §1"}, "[5]": {"test_system": "Abutilon theophrasti (ABUTH)", "experiment": "Herbicidal post-emergence action (Table B5)", "settings": "1280 g/ha; rated visually after about 3 weeks; 100% = plants have died, 0% = like control plants", "how_it_was_run": "(§2)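 Visual percent activity relative to untreated controls (100% = plants dead, 0% = like controls) was scored about 3 weeks after treatment. Plants had been sprayed at the one-leaf stage with formulated compound at 1280 or 320 g/ha in 600 L/ha water containing 0.5% additive.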"}, "[6]": {"test_system": "harmful plants ABUTH, AMARE, ECHCG, LOLRI, MATIN, POAAN, SETVI, STEME, ALOMY, DIGSA, KCHSC and VERPE", "experiment": "Herbicidal pre-emergence action (test C), summary of Tables C1-C12", "settings": "application rate of 1280 or 320 g of active ingredient per hectare; summary in words", "how_it_was_run": "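Pre-emergence pot test in sandy loam: WP or EC formulations were sprayed onto the covering soil with 0.5% additive at 600 L/ha water, at 1280 or 320 g/ha. Plants were kept in the greenhouse, and activity was rated visually about 3 weeks later as % versus untreated controls (100% = dead).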"}, "[7]": {"test_system": "Stellaria media (STEME)", "experiment": "Herbicidal pre-emergence action, test C (Table C8)", "settings": "dosage 1280 g/ha; visual scoring after about 3 weeks; 100% = plants have died, 0% = like control plants", "how_it_was_run": "as §1"}, "[8]": {"test_system": "harmful plants ABUTH, AMARE, ECHCG, LOLRI, MATIN, POAAN, SETVI, STEME, ALOMY, DIGSA, KCHSC and VERPE", "experiment": "Herbicidal post-emergence action, summary of Tables B1-B12", "settings": "application rate of 1280 or 320 g of active ingredient per hectare; summary in words", "how_it_was_run": "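Greenhouse weeds in sandy loam treated post-emergence at the one-leaf stage, 2–3 weeks after sowing, with WP or EC formulations sprayed with 0.5% additive at 600 L/ha water, 1280 or 320 g/ha. Damage rated visually after about 3 weeks versus untreated controls (0% = like control, 100% = dead).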"}, "[9]": {"test_system": "Abutilon theophrasti (ABUTH)", "experiment": "Herbicidal pre-emergence action, test C (Table C5)", "settings": "dosage 1280 g/ha; visual scoring after about 3 weeks; 100% = plants have died, 0% = like control plants", "how_it_was_run": "as §1"}, "[10]": {"test_system": "Amaranthus retroflexus (AMARE)", "experiment": "Herbicidal post-emergence action (Table B6)", "settings": "visual rating about 3 weeks after treatment, 100% = plants have died, 0% = like control plants", "how_it_was_run": "as §2"}, "[11]": {"test_system": "Poa annua (POAAN)", "experiment": "Herbicidal pre-emergence action, test C (Table C3)", "settings": "dosage 1280 g/ha; visual scoring after about 3 weeks; 100% = plants have died, 0% = like control plants", "how_it_was_run": "as §1"}, "[12]": {"test_system": "harmful plants AGSTE, DIPTE, LOLPE, MATCH, POAAN, SETVI, STEME and VERPE", "experiment": "Herbicidal early post-emergence action, summary of Tables A1-A8", "settings": "application rate of 1900 g of active ingredient per hectare; summary in words", "method": "(§3) Seeds of monocotyledonous and dicotyledonous weed plants were placed in 96-well microtiter plates in quartz sand and grown in a climatized chamber under controlled growth conditions. 5 to 7 days after sowing, the test plants were treated at the cotyledon stage. The compounds according to the invention, formulated in the form of emulsion concentrates (EC), were applied with a water application rate of the equivalent of 2200 liters per hectare. After the test plants had been left to stand in the climatized chamber for 9 to 12 days under optimum growth conditions, the effect of the preparations was scored visually in comparison to untreated controls. For example, 100% activity=the plants have died, 0% activity=like control plants.\nTables A1 to A8 below show the effects of selected compounds of the general formula (I) according to Table 1 on various harmful plants and an application rate corresponding to 1900 g/ha, which were obtained by the experimental procedure mentioned above.\nAs the results of Tables A1-A8 show, compounds no."}, "[13]": {"test_system": "Agrostis tenuis (AGSTE)", "experiment": "Herbicidal early post-emergence action (Table A1)", "settings": "1900 g/ha; scored visually 9 to 12 days after treatment; 100% = plants have died, 0% = like control plants", "method": "as §3, with “plants. Tables A1 to A8 below show the effects of selected compounds of the general formula (I) according to Table 1 on various harmful plants and an application rate corresponding to 1900 g/ha, which were obtained by the experimental procedure mentioned above.” for “plants.”"}},
  "data": [
    {"smiles": "N#Cc1ccc(Oc2cccc(F)c2-c2cc(C(F)F)on2)nc1", "note": "[Example 1-11]", "values": [
      {"measurement": "Pre-emergence action against Matricaria inodora (MATIN)", "setting": "[1]", "value": 90, "unit": "%"},
      {"measurement": "Pre-emergence action against Echinochloa crus-galli (ECHCG)", "setting": "[2]", "value": 90, "unit": "%"},
      {"measurement": "Pre-emergence action against Setaria viridis (SETVI)", "setting": "[3]", "value": 90, "unit": "%"},
      {"measurement": "Pre-emergence action against Amaranthus retroflexus (AMARE)", "setting": "[4]", "value": 100, "unit": "%"},
      {"measurement": "Post-emergence action against Abutilon theophrasti (ABUTH)", "setting": "[5]", "value": 100, "unit": "%"},
      {"measurement": "herbicidal activity against the harmful plants of Tables C1-C12 in pre-emergence treatment", "setting": "[6]", "value": "very good herbicidal activity"},
      {"measurement": "Pre-emergence action against Stellaria media (STEME)", "setting": "[7]", "value": 100, "unit": "%"},
      {"measurement": "herbicidal activity against the harmful plants of Tables B1-B12 in post-emergence treatment", "setting": "[8]", "value": "very good herbicidal activity"},
      {"measurement": "Pre-emergence action against Abutilon theophrasti (ABUTH)", "setting": "[9]", "value": 100, "unit": "%"},
      {"measurement": "Post-emergence action against Amaranthus retroflexus (AMARE)", "setting": "[10]; dosage 320 g/ha", "value": 100, "unit": "%"},
      {"measurement": "Post-emergence action against Amaranthus retroflexus (AMARE)", "setting": "[10]; dosage 1280 g/ha", "value": 100, "unit": "%"},
      {"measurement": "Pre-emergence action against Poa annua (POAAN)", "setting": "[11]", "value": 90, "unit": "%"}
    ]},
    {"smiles": "FC(F)(F)c1cccc(-c2ccccc2Oc2ccccn2)n1", "note": "[Example 1-50]", "values": [
      {"measurement": "herbicidal activity against the harmful plants of Tables A1-A8 in early post-emergence treatment", "setting": "[12]", "value": "very good herbicidal activity"},
      {"measurement": "Early post-emergence effect against Agrostis tenuis (AGSTE)", "setting": "[13]", "value": 80, "unit": "%"}
    ]},
    {"smiles": "Oc1ccc(-c2cc(C(F)F)no2)c(Oc2ccc(Cl)cn2)c1", "note": "[Example 1-42]", "values": [
      {"measurement": "herbicidal activity against the harmful plants of Tables A1-A8 in early post-emergence treatment", "setting": "[12]", "value": "very good herbicidal activity"},
      {"measurement": "Early post-emergence effect against Agrostis tenuis (AGSTE)", "setting": "[13]", "value": 80, "unit": "%"}
    ]},
    {"smiles": "Cn1nc(C(F)F)cc1-c1c(F)cccc1Oc1ncc(Cl)cc1F", "note": "[Example 1-82]", "values": [
      {"measurement": "herbicidal activity against the harmful plants of Tables A1-A8 in early post-emergence treatment", "setting": "[12]", "value": "very good herbicidal activity"},
      {"measurement": "Early post-emergence effect against Agrostis tenuis (AGSTE)", "setting": "[13]", "value": 80, "unit": "%"}
    ]},
    {"smiles": "Fc1ccc(Oc2ccc(Cl)cn2)c(-c2cc(C(F)F)on2)c1", "note": "[Example 1-30]", "values": [
      {"measurement": "herbicidal activity against the harmful plants of Tables A1-A8 in early post-emergence treatment", "setting": "[12]", "value": "very good herbicidal activity"},
      {"measurement": "Early post-emergence effect against Agrostis tenuis (AGSTE)", "setting": "[13]", "value": 80, "unit": "%"}
    ]},
    {"smiles": "Fc1cccc(Oc2ncc(C(F)(F)F)cc2Cl)c1-c1cc(C(F)F)on1", "note": "[Example 1-13]", "values": [
      {"measurement": "herbicidal activity against the harmful plants of Tables A1-A8 in early post-emergence treatment", "setting": "[12]", "value": "very good herbicidal activity"},
      {"measurement": "Early post-emergence effect against Agrostis tenuis (AGSTE)", "setting": "[13]", "value": 80, "unit": "%"}
    ]},
    {"smiles": "Fc1cccc(Oc2ncc(Cl)cc2Cl)c1-c1cc(C(F)F)on1", "note": "[Example 1-12]", "values": [
      {"measurement": "herbicidal activity against the harmful plants of Tables A1-A8 in early post-emergence treatment", "setting": "[12]", "value": "very good herbicidal activity"},
      {"measurement": "Early post-emergence effect against Agrostis tenuis (AGSTE)", "setting": "[13]", "value": 80, "unit": "%"}
    ]}
  ]
}
